Data reported in ChEMBL document CHEMBL1201862, “PubChem BioAssay data set” (2004).
Active and inactive are the calls of the source.

Experiments:
Bcl-2-like protein 10 = Bcl-2-like protein 10 (Homo sapiens, UniProt Q9HD36); test: displacers of TR3 peptide from Bcl-B, primary screen, selectivity assay for Bfl-1 inhibitor project, biochemical, fluorescence polarization, FITC-TR3 peptide (AID 748);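 also: fluorescence polarization from a fluorescein-labelled TR3 peptide binding purified Bcl-B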
[1] = target: T1, DNA repair and recombination protein RAD54-like (Homo sapiens, UniProt Q92698); test: inhibitors of human RAD54 branch migration, confirmation, biochemical, fluorescence, cherry-picked samples, dose series (AID 651657); assay type: functional
T1 sequence (Q92698 whole entry): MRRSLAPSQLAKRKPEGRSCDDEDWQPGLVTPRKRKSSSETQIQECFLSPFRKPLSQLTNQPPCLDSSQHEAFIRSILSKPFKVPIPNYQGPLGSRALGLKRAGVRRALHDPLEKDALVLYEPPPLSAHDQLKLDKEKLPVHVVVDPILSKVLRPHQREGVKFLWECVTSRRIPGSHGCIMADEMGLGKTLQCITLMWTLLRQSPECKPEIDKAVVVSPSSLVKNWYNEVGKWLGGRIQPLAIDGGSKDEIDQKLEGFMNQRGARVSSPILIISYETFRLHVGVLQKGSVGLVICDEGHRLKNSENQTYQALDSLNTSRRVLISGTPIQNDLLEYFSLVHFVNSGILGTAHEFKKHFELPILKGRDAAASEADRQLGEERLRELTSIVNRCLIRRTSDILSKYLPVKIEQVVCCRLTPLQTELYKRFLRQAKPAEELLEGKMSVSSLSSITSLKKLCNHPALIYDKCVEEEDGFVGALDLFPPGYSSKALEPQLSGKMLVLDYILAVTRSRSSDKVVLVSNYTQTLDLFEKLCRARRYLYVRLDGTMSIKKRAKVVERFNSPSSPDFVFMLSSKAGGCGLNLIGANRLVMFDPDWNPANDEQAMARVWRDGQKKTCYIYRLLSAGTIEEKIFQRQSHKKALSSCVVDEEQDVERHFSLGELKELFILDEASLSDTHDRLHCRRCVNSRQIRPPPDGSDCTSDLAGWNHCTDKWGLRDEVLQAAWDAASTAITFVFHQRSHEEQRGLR

cells = assay type: functional, cell-based; conditions: PPC-1
MDA-MB-435 = test: cells; assay type: functional, cell-based; conditions: Homo sapiens
[2] = target: T2, Voltage-gated N-type calcium channel alpha-1B subunit/Amyloid beta A4 precursor protein-binding family A member 1 (Homo sapiens, UniProt Q00975+Q02410); assay type: protein assay
T2 sequence (Q00975 whole entry): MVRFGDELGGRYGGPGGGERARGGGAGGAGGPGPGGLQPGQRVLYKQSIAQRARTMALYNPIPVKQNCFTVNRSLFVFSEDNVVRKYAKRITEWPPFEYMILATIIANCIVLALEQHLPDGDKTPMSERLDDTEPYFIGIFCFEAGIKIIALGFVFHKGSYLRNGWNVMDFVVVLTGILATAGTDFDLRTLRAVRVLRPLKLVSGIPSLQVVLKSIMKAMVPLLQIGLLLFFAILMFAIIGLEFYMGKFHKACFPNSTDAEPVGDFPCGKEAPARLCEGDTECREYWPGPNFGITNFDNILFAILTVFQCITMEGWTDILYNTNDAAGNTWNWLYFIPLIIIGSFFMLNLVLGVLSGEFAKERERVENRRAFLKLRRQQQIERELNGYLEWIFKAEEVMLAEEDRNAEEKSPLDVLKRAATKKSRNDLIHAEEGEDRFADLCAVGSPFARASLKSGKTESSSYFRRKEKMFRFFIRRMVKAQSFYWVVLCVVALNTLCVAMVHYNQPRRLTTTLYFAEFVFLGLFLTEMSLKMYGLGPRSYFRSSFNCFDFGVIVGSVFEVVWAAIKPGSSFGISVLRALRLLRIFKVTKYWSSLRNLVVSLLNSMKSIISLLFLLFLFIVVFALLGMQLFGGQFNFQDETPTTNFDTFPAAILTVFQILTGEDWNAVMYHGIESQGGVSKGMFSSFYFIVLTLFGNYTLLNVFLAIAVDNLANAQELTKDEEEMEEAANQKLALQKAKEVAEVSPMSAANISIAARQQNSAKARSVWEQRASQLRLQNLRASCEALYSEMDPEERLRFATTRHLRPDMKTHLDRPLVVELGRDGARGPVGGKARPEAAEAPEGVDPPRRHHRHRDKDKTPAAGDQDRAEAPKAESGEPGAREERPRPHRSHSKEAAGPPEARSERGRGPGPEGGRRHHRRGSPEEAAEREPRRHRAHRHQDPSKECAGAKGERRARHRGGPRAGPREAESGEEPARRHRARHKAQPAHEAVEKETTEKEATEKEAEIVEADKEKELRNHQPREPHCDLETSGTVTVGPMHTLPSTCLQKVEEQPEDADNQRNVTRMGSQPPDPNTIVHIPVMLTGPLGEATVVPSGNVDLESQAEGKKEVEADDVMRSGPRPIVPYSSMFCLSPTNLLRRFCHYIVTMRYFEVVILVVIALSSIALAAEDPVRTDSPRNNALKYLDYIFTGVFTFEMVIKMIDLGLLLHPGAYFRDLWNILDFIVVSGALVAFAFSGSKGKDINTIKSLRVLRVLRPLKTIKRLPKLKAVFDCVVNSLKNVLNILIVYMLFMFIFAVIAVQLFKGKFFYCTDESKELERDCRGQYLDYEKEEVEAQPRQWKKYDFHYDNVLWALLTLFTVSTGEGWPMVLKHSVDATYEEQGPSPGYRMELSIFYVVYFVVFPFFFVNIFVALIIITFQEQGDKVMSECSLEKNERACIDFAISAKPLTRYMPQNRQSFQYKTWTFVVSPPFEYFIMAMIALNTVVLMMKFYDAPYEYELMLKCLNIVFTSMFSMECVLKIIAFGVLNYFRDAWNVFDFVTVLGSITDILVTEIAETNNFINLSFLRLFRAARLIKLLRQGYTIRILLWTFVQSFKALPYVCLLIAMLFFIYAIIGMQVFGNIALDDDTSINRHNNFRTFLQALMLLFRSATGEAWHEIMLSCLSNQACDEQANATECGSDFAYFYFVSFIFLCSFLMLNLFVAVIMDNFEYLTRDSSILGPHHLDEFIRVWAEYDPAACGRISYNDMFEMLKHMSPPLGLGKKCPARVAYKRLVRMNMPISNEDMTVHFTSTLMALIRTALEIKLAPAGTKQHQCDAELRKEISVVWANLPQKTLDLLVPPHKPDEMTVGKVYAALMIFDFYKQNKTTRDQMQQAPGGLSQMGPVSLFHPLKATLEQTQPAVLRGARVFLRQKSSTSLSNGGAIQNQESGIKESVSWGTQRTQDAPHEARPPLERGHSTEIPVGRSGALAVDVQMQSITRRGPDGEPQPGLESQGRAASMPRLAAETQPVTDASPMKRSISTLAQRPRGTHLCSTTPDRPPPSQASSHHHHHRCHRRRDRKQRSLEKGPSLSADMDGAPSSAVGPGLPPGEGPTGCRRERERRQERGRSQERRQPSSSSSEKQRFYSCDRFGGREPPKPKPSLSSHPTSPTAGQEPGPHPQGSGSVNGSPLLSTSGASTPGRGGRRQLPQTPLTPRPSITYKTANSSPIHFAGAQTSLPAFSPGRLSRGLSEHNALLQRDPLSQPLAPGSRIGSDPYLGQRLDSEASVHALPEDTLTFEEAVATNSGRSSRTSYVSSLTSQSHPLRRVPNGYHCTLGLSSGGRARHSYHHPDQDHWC
T2 sequence (Q02410 whole entry): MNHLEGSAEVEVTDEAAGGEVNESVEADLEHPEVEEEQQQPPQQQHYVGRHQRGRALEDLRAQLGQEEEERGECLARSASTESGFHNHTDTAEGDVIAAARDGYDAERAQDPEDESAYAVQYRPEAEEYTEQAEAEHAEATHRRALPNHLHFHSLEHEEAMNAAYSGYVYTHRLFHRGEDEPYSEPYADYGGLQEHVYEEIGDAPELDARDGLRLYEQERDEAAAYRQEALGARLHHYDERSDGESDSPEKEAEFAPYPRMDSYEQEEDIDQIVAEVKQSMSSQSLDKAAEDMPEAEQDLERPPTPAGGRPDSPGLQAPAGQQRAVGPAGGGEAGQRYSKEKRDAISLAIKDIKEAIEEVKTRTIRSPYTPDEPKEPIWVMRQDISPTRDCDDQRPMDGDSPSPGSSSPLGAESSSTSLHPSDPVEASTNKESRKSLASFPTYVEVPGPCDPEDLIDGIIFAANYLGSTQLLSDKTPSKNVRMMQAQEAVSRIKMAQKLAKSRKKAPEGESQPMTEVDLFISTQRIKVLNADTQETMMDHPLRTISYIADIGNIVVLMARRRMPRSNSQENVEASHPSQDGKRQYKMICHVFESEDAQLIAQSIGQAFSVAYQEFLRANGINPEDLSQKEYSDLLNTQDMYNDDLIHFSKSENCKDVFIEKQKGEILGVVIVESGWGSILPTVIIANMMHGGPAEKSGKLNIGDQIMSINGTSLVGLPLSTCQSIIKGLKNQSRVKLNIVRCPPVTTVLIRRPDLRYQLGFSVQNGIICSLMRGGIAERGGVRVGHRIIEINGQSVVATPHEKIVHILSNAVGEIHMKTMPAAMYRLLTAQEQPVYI

[3] = target: T2, Voltage-gated N-type calcium channel alpha-1B subunit/Amyloid beta A4 precursor protein-binding family A member 1; assay type: protein assay; remark: listed apart in the source
[4] = target: Glucose-6-phosphate 1-dehydrogenase (Homo sapiens, UniProt P11413); test: human G6PD enzyme inhibitors, dose response, selectivity assay for P. falciparum G6PD inhibitor project, biochemical, fluorescence (AID 504792); assay type: functional
Sequence of Glucose-6-phosphate 1-dehydrogenase (P11413 whole entry, the tested form may be a part): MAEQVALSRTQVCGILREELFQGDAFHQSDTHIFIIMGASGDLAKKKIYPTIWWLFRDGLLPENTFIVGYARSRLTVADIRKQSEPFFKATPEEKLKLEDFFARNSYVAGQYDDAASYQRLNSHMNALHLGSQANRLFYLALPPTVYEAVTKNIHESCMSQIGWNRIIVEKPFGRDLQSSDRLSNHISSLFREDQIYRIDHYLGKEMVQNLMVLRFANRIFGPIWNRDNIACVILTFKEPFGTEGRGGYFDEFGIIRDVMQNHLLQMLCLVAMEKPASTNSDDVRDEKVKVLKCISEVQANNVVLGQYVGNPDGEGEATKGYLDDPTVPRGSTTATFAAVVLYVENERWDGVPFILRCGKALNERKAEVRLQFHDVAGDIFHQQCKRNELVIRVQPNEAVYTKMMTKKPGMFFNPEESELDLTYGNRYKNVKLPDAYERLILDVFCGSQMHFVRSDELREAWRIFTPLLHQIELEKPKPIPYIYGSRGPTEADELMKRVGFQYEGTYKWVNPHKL

[5] = Fluorescence-based cell-based high throughput dose response assay for inhibitors of the interaction of nucleotide-binding oligomerization domain containing 2 (NOD2) and the receptor-interacting serine-threonine kinase 2 (RIPK2).; assay type: functional; conditions: Homo sapiens
Large T antigen = Large T antigen (Simian virus 40, UniProt P03070); assay type: functional, Betapolyomavirus macacae;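 also: Confirmatory-stage PubChem screen for compounds that inhibit SV40 T antigen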
Beta Lactamase = Beta Lactamase (Pseudomonas aeruginosa, UniProt Q932Y6); test: beta-lactamase reporter inhibitor potency, dose response, artefact control for NOD2-RIPK2 interaction inhibitor project, BLA reporter cells, FRET fluorescence (AID 651552); assay type: functional, cell-based
[6] = target: T3, Rac GTPase-activating protein 1 (Homo sapiens, UniProt Q9H0H5); test: MgcRacGAP GTPase-activating activity inhibitors, confirmation, biochemical, ADP Hunter fluorescence, primary and confirmatory (AID 624330); assay type: functional
T3 sequence (Q9H0H5 whole entry): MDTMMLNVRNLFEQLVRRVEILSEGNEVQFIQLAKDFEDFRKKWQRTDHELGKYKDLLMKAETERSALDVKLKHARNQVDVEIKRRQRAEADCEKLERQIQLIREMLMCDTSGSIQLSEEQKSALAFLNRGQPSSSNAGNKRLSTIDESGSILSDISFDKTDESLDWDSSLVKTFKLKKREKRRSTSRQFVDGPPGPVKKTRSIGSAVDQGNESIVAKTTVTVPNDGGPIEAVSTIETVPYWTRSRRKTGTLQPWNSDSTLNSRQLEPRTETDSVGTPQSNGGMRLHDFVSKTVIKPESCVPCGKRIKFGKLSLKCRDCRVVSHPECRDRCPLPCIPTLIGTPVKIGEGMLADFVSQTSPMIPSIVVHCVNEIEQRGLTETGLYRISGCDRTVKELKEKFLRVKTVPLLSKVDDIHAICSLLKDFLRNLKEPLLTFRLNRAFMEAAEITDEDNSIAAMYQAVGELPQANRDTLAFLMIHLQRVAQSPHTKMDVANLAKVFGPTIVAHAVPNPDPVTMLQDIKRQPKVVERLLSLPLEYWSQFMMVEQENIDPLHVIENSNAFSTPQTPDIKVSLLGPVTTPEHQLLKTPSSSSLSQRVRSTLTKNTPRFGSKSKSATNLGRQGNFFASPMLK

ORF 73 = ORF 73 (Human herpesvirus 8, UniProt O40947); test: inhibitors of C-LANA binding to LBS DNA, dose response, biochemical, fluorescence polarization, cherry-picked samples (AID 504725); set-up: species or system Human gammaherpesvirus 8;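 also: fluorescence polarization of a labeled DNA duplex reporting LANA DNA binding; potency is for inhibitors that block LANA binding to the DNA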
Keap1/Nrf2 = Keap1/Nrf2 (Homo sapiens, UniProt Q14145); test: Keap1-Nrf2 protein-protein interaction inhibitors, dose response, biochemical, fluorescence polarization, cherry-picked samples (AID 588683)
Protein Tat = target: T4, Protein Tat (Human immunodeficiency virus type 1 group M subtype B (isolate HXB2)(HIV-1), UniProt P04608); assay type: functional;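 also: tat binding to TAR RNA read out by fluorescence polarization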
T4 sequence (P04608 whole entry): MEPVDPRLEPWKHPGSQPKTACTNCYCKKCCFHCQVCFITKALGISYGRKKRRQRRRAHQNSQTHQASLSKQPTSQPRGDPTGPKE

[7] = target: Alkaline phosphatase, placental type (Homo sapiens, UniProt P05187); test: PLAP enzyme inhibitors, confirmation, biochemical, luminescence (AID 1512); assay type: functional
[8] = target: T5, Alkaline phosphatase, tissue-nonspecific isozyme (Homo sapiens, UniProt P05186); test: human TNAP enzyme inhibitors, SAR follow-up, biochemical, luminescent, dose response (AID 1056)
T5 sequence (P05186 whole entry): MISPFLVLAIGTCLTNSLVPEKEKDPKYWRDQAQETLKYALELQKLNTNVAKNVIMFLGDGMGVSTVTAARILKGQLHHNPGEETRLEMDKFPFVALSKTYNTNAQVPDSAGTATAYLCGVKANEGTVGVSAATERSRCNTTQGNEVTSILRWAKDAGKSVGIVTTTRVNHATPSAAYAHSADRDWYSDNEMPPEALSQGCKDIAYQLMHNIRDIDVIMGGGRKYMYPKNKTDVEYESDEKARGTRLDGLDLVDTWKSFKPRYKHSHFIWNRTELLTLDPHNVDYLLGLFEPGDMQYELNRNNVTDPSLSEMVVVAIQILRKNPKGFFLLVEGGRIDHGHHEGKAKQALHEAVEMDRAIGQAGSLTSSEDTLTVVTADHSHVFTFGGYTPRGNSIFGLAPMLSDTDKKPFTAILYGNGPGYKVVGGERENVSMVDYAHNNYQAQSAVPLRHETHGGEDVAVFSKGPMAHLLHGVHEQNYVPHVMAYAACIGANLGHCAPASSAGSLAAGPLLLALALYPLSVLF

[9] = target: Glyceraldehyde-3-phosphate dehydrogenase (Homo sapiens, UniProt P04406)
[10] = target: Neurotensin receptor type 1 (Homo sapiens, UniProt P30989); assay type: functional;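 also: Image-based confirmatory dose-response assay measuring agonist activity at NTR1; NTR1-expressing U2OS osteosarcoma cells imaged for beta-arrestin GFP spot formation; agonist potency where compounds increase beta-arrestin recruitment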
[11] = Luminescence Cell-Based Dose Retest to Confirm Inhibitors of Cancer Stem Cells. [Related pubchem assays (depositor defined):AID2717, AID2721]; assay type: functional; conditions: Homo sapiens
[12] = Shn3 3'UTR reporter inhibitors, dose response, cell-based, Clone20 osteoblasts, firefly luciferase, cherry-picked (AID 624132); assay type: functional;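 also: firefly luciferase luminescence from reporter carrying the Shn3 3'UTR in osteoblasts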
Paired box protein Pax-8 = Paired box protein Pax-8 (Homo sapiens, UniProt Q06710); test: inhibitors of PAX8-driven TPO luciferase reporter, dose response, RMG-I cells, cherry-pick (AID 687027); assay type: functional, cell-based;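 also: luciferase reporter driven by Pax8 target thyroperoxidase promoter measured by SteadyGlo luminescence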
[13] = non-specific cell cytotoxicity, dose response, cytotoxicity control for PAX8 inhibitor project, plate reader, dry powder samples (AID 743021); assay type: functional, cell-based
[14] = HepG2 cell cytotoxicity, dose response, cytotoxicity control for Shn3 inhibitor project, CellTiter-Glo, cherry-picked (AID 624134); assay type: functional, cell-based
Beta-galactosidase = Beta-galactosidase (Escherichia coli, UniProt Q8VNN2); test: beta-galactosidase enzyme inhibitors and activators, dose response, artefact control for CCR6 antagonist project, biochemical, E. coli enzyme, set 3 (AID 504712); assay type: functional
[15] = target: T6, Kappa-type opioid receptor (Homo sapiens, UniProt P41145); test: KOR agonist analogs, arrestin-GFP redistribution, SAR follow-up, imaging, image-based, set 3 (AID 488833); assay type: functional
T6 sequence (P41145 whole entry): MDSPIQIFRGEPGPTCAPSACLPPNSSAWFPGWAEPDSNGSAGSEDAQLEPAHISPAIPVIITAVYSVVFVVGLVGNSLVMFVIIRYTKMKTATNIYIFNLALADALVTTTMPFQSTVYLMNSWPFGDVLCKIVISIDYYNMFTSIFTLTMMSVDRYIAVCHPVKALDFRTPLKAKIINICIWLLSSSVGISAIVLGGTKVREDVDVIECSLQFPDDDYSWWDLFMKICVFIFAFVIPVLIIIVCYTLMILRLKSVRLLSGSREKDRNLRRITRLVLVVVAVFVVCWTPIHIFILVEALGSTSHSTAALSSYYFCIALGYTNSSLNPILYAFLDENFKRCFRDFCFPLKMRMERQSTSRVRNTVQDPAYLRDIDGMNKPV

[16] = target: Delta-type opioid receptor (Homo sapiens, UniProt P41143); test: SAR Analysis of Agonists of the DOR Receptor using an Image-Based Assay - Set 3. [Related pubchem assays (depositor defined):AID1777, AID1786]; assay type: functional
Sequence of Delta-type opioid receptor (P41143 whole entry): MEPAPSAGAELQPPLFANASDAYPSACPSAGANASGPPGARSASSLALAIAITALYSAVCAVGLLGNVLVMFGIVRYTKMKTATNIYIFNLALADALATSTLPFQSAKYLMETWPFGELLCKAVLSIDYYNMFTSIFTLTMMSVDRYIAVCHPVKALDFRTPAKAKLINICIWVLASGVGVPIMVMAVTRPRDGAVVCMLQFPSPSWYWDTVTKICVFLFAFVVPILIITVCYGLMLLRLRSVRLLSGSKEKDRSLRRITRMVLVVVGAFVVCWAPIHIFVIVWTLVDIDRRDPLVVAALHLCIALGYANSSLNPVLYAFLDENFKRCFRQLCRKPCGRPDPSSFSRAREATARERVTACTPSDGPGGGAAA

[17] = target: T6, Kappa-type opioid receptor; test: SAR analysis of small molecule agonists of the kappa opioid receptor via a luminescent beta-arrestin assay - Set 3. [Related pubchem assays (depositor defined):AID1777, AID1785, AID1786, AID1966, AID2133, AID2136, AID2284, AID2500]; assay type: functional
Mu-type opioid receptor = Mu-type opioid receptor (Homo sapiens, UniProt P35372); test: SAR Analysis of Agonists of the MOR Receptor using an Image-Based Assay - Set 3. [Related pubchem assays (depositor defined):AID1777, AID1785, AID1786, AID1966, AID2133, AID2136, AID2284, AID2285, AID2352]; assay type: functional
[18] = HeLa cell cytotoxicity, dose response, cytotoxicity control for MgcRacGAP inhibitor project (AID 624300); assay type: functional
[19] = target: Scavenger receptor class B member 1 (Mus musculus, UniProt Q61009); test: inhibitors of SR-BI mediated HDL lipid uptake, dose response, ldlA[mSR-BI] cells, fluorescence, cherry pick (AID 493194); assay type: functional, cell-based;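 also: cellular uptake of fluorescent DiI-labeled HDL measured as cell fluorescence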
Sequence of Scavenger receptor class B member 1 (Q61009 whole entry): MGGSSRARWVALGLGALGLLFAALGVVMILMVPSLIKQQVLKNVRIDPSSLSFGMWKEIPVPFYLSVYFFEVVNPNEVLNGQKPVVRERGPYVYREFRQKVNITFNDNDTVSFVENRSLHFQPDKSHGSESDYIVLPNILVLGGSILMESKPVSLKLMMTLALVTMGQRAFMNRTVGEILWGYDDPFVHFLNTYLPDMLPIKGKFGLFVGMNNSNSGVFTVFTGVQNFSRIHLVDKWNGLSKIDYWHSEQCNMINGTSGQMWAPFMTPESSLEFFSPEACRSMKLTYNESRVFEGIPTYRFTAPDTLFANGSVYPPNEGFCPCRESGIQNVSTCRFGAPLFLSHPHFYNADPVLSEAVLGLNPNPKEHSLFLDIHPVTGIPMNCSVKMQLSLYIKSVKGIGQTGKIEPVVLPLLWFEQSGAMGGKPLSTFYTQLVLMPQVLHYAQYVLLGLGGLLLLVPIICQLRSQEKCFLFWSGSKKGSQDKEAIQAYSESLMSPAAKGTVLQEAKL

[20] = target: Signal transducer and activator of transcription 3 (Homo sapiens, UniProt P40763); test: STAT3 activators, late-stage profile, late-stage follow-up, cell-based, STAT1 reporter, BCL3 qPCR, cytotoxicity, panel member STAT3 Activation (AID 2049)
[21] = target: Voltage-dependent T-type calcium channel subunit alpha-1H (Homo sapiens, UniProt O95180); test: Cav3.2 T-type channel inhibitors, cell-based, synthetic library set 1, calcium flux (AID 493022); assay type: functional
Neutrophil collagenase = Neutrophil collagenase (Homo sapiens, UniProt P22894); test: MMP13 inhibition and MMP selectivity, late-stage follow-up, selectivity assay for MMP13 inhibitor project, biochemical, probe development, late stage results, panel member MMP-8 [IC50 Assay] (AID 2067)

CN(C)CCSc1nc(N)c2c3c(sc2n1)CN(C)CC3
IC50 (Bcl-2-like protein 10): 46.2 µM (active)
AC50 [1]: 28.9 µM (active)

COc1cc(-c2ccccc2)nc(S)n1
IC50 (cells): > 10 µM (inactive)
IC50 (MDA-MB-435): > 10 µM (inactive)

N#C/C(C(=O)Nc1ccc(Cl)cc1)=C(/S)Nc1ccccc1
IC50 [2]: 13.9 µM (active)
IC50 [3]: 25.5 µM (active)
IC50 [4]: 52 µM (inactive)
IC50 [5]: 19.6 µM (inactive)
IC50 (Large T antigen): 16.5 µM (active)
IC50 (Beta Lactamase): 49.8 µM (inactive)

Cc1nc2ccccc2n2c(O)c(CC(=O)O)cc12
IC50 [6]: 35 µM (active)
AC50 (ORF 73): 10 µM (active)
AC50 (Keap1/Nrf2): 12.3 µM (active)
IC50 (Protein Tat): 6.32 µM (inconclusive)

CC(C)(C)NC(=O)c1cc(-c2cc(F)c(Cl)cc2Cl)n[nH]1
IC50 [7]: > 100 µM (inactive)
IC50 [8]: 1.08 µM (active)
IC50 [9]: > 100 µM (not active)

CC1=C(C(=O)OC2CCCCCCC2)C(c2cc3c(cc2Br)OCO3)CC(=O)N1 (centres undefined)
EC50 [10]: 18.2 µM (active)
AC50 [11]: 3.59 µM (active)

O=C(OCc1ccccc1)N(CCCCN(CCCNCc1ccccc1)C(=O)OCc1ccccc1)CCCNCc1ccccc1
AC50 [12]: 5.36 µM (active)
AC50 (Paired box protein Pax-8): 9.11 µM (active)
AC50 [13]: 10.3 µM (active)
AC50 [14]: 4.16 µM (active)
IC50 (Beta-galactosidase): > 66.6 µM (inactive)

N#Cc1ccc(CSc2nnc(-c3ccccn3)n2Cc2ccco2)cc1
EC50 [15]: 19.3 µM (inactive)
EC50 [16]: > 64 µM (inactive)
EC50 [17]: 6.79 µM (active)
EC50 (Mu-type opioid receptor): > 32 µM (inactive)

C=C(CN(C)C)C(=O)c1ccc(OC2OC(COC(C)=O)C(OC(C)=O)C(OC(C)=O)C2OC(C)=O)cc1 (centres undefined)
IC50 [6]: 162 µM (active)
CC50 [18]: 100 µM (active)
AC50 [19]: 6.87 µM (active)

CN(C(=O)c1cc(C2CC2)on1)c1ccccc1
EC50 [20]: > 55.7 µM (inactive)

O=C(COc1ccc(F)c(Cl)c1)Nc1nnc(-c2ccc3c(c2)CCCC3)o1
EC50 [21]: 2.4 µM (active)

Oc1nc(SCc2ccc(Cl)cc2)nc2c1CCC2
IC50 (Neutrophil collagenase): > 39.8 µM (active)
